Data set [1] is described as follows: stability test: water content (Karl-Fischer) and powder X-ray diffractogram in contact with the atmosphere at room temperature. It counts as physicochemical. The text has this: The new crystalline form of gatifloxacin which is obtainable by this process has an initial water content ranging between 0.8 and 1.6% and stabilises with a water content ranging between 2.5 and 4.5% by weight, when it is in contact with the atmosphere at room temperature and with a relative humidity comprised between 20 and 70%, and it remains stable for at least 2 months in such conditions.
The crystalline form of gatifloxacin object of the present invention is characterized by its powder X-ray diffractogram (FIG. 1), ^13C nuclear magnetic resonance spectrum (FIG. 3) and analysis of water content by the Karl-Fischer method.
For recording the powder X-ray diffractograms a PHILIPS X'Pert automatic diffractometer equipped with a Cu tube and a graphite secondary monochromator of the following technical specifications was used: • Cu wavelength Kα: 1.5419 Å; • receiving slit: 0.1 mm; • Soller: 0.04 radians; • dispersion slit and divergence slit: 1°
The tube worked at 40 kV and 50 mA. Sweeping was carried out continuously in the 2θ interval between 5 and 40° with pass of 0.03° and 1-second pass time.

The nature of data set [2]: disintegration and dissolution rate properties. It counts as physicochemical. The settings on record: form containing between 2.5 and 4.5% of water by weight.

The structures appear in SMILES notation. Several values for one entry are separate records, joined by “and”; a condition that tells them apart may be missing. Identical values can stand only once.

Data on 1 compound can be found in US20070032505A1, “Crystalline form of gatifloxacin” (priority 2003, published 2007).

For `COc1c(N2CCNC(C)C2)c(F)cc2c(=O)c(C(=O)O)cn(C3CC3)c12` (centres unmarked) [form I gatifloxacin, 1-cyclopropyl-6-fluoro-1,4-dihydro-ε-methoxy-7-(3-methyl-1-piperazinyl)-4-oxo-3-quinolinecarboxylic acid], the “% water by weight” value in data set [1] (3 hours, room temperature, in contact with the atmosphere) is 2.2 % by weight; in data set [1] (6 hours, room temperature, in contact with the atmosphere), 2.3 % by weight; in data set [1] (3 days, room temperature, in contact with the atmosphere), 3.22 % by weight and 3.2 % by weight; in data set [1] (13 days, room temperature, in contact with the atmosphere), 2.9 % by weight; in data set [1] (17 days, room temperature, in contact with the atmosphere) it was 3.0 % by weight; in data set [1] (68 days, room temperature, in contact with the atmosphere) it was 3.3 % by weight. The “% water by weight” value in data set [1] (time 0 (at the time of taking it out of the desiccator)) is reported as 1.5 % by weight. Further, the “period of time to stabilise” value in data set [1] (longer if relative humidity lower than 20%) is “three”. Besides, the “powder X-ray diffractogram over the stability test period” value in data set [1] (room temperature, in contact with the atmosphere, up to 68 days) is “remains substantially unchanged”. Also, the “time the water content remains stable” value in data set [1] (room temperature, relative humidity between 20 and 70%) is given as “at least 2 months”. In addition, the “properties of disintegration and dissolution rate” value in data set [2] is “excellent”.
